Source: DBAASP
Values after ≈ are worked out from the molar mass of the structure shown. Values joined by “and” are separate entries in the source; they are usually repeats but may differ in a detail not shown here. Equal values may be shown once.

Columns and labels:
Assay in all cases: ≥ marks a high value that may be exact or a test limit, other limits are often not marked, values filed in µg/mL are converted to µM
[1] = tested on: Staphylococcus aureus DBFIQ S21
[2] = tested on: Listeria monocytogenes DBFIQ LM3
[3] = tested on: Bacillus anthracis Sterne 34F2
[4] = tested on: Bacillus subtilis var. niger ATCC 9372
Escherichia coli K91BK = tested on: Escherichia coli K91BK
[5] = tested on: Salmonella typhimurium CCARM 8003
[6] = tested on: Staphylococcus aureus CCARM 3108
[7] = tested on: Bacillus subtilis KCTC 3068
[8] = tested on: Escherichia coli CCARM 1229
[9] = tested on: Pseudomonas aeruginosa KCTC 1637
[10] = tested on: Escherichia coli KCTC 1682
[11] = tested on: Staphylococcus aureus CCARM 3089
[12] = tested on: Staphylococcus epidermidis KCTC 1917
[13] = tested on: Staphylococcus aureus CCARM 3114
[14] = tested on: Salmonella typhimurium KCTC 1926
[15] = tested on: Staphylococcus aureus KCTC 1621
Trichosporon beigelii = tested on: Trichosporon beigelii
Candida albicans = tested on: Candida albicans
Aspergillus flavus = tested on: Aspergillus flavus
[16] = tested on: Salmonella typhimurium CCARM 8007
Malassezia furfur = tested on: Malassezia furfur
[17] = tested on: Staphylococcus aureus P204
[18] = tested on: Pseudomonas aeruginosa ATCC 27853
[19] = tested on: Enterococcus faecalis M4899
[20] = tested on: Enterococcus faecium M2304
Acinetobacter sp. M9013 = tested on: Acinetobacter sp. M9013
[21] = tested on: Staphylococcus saprophyticus M4070
[22] = tested on: Staphylococcus hominis M2973
[23] = tested on: Staphylococcus aureus ATCC 25923
[24] = tested on: Pseudomonas aeruginosa M13513
Escherichia coli M9884 = tested on: Escherichia coli M9884
[25] = tested on: Enterococcus faecium PZAP 95
Acinetobacter sp. M13523 = tested on: Acinetobacter sp. M13523
[26] = tested on: Staphylococcus aureus P33
[27] = tested on: Klebsiella pneumoniae M9170
Acinetobacter sp. M9665 = tested on: Acinetobacter sp. M9665
Staphylococcus cohnii = tested on: Staphylococcus cohnii
Staphylococcus warneri = tested on: Staphylococcus warneri
[28] = tested on: Escherichia coli ATCC 25922
[29] = tested on: Pseudomonas aeruginosa M5470
[30] = tested on: Enterococcus gallinarum M2723
Acinetobacter sp. M5949 = tested on: Acinetobacter sp. M5949
[31] = tested on: Enterococcus faecalis ATCC 29212
[32] = tested on: Staphylococcus epidermidis M2923
[33] = tested on: Enterococcus faecalis ATCC 51299
[34] = tested on: Staphylococcus hominis M2967
[35] = tested on: Pseudomonas aeruginosa PACO12
[36] = tested on: Enterococcus gallinarum M2685
[37] = tested on: Enterococcus faecalis M6983
[38] = tested on: Klebsiella pneumoniae PFAV 3
[39] = tested on: Staphylococcus epidermidis M2921
[40] = tested on: Staphylococcus aureus M6276
[41] = tested on: Enterococcus faecalis M6534
[42] = tested on: Staphylococcus haemolyticus M2976

For `CC[C@H](C)[C@H](NC(=O)[C@H](C)NC(=O)[C@@H](NC(=O)[C@H](C)NC(=O)CN)[C@@H](C)O)C(=O)N[C@@H](CCCCN)C(=O)N[C@@H](CCC(N)=O)C(=O)N[C@H](C(=O)N[C@@H](CCCCN)C(=O)N[C@@H](CCCCN)C(=O)N[C@@H](CC(C)C)C(=O)N[C@@H](Cc1c[nH]c2ccccc12)C(=O)N[C@@H](CCCCN)C(=O)N[C@@H](CCCCN)C(=O)N[C@@H](CCCCN)C(=O)NCC(=O)NCC(N)=O)C(C)C` [GATAIKQVKKLWKKKGG], the MIC [1] was ≥ 69.6 µM and the MIC [2] was ≥ 69.6 µM.

`CC[C@H](C)[C@H](NC(C)=O)C(=O)N[C@@H](CC(C)C)C(=O)N[C@@H](CCCN=C(N)N)C(=O)N[C@@H](Cc1c[nH]c2ccccc12)C(=O)N1CCC[C@H]1C(=O)N[C@@H](Cc1c[nH]c2ccccc12)C(=O)N[C@@H](Cc1c[nH]c2ccccc12)C(=O)N1CCC[C@H]1C(=O)N[C@@H](Cc1c[nH]c2ccccc12)C(=O)N[C@@H](CCCN=C(N)N)C(=O)N[C@@H](CCCN=C(N)N)C(=O)N[C@@H](CCCCN)C(N)=O` [ILRWPWWPWRRK] was tested, and the MIC [3] was 25 µM (≈ 45.5 µg/mL), the MIC [4] was 3.13 µM (≈ 5.7 µg/mL) and the MIC (Escherichia coli K91BK) was ≥ 100 µM.

For `CC[C@H](C)[C@H](NC(=O)[C@H](C)NC(=O)[C@H](CC(C)C)NC(=O)[C@H](Cc1c[nH]c2ccccc12)NC(=O)[C@H](CC(C)C)NC(=O)[C@@H](N)CCCN=C(N)N)C(=O)NCC(=O)N[C@@H](CCCN=C(N)N)C(=O)N[C@@H](CCCN=C(N)N)C(N)=O` [RLWLAIGRR], the MIC [5] was ≥ 32 µM, the MIC [6] was 4 µM (≈ 4.56 µg/mL) and the MIC [7] was 4 µM (≈ 4.56 µg/mL). For the same molecule, the MIC [8] was 8 µM (≈ 9.12 µg/mL), the MIC [9] was 16 µM (≈ 18.2 µg/mL) and the MIC [10] was 4 µM (≈ 4.56 µg/mL). It also gave an MIC [11] of 8 µM (≈ 9.12 µg/mL), an MIC [12] of 2 µM (≈ 2.28 µg/mL) and an MIC [13] of 16 µM (≈ 18.2 µg/mL). The MIC [14] was 16 µM (≈ 18.2 µg/mL) and the MIC [15] was 4 µM (≈ 4.56 µg/mL).

`CC(C)C[C@H](NC(=O)[C@H](Cc1c[nH]c2ccccc12)NC(=O)[C@H](CC(C)C)NC(=O)[C@@H](N)CCCN=C(N)N)C(=O)N[C@@H](C)C(=O)N[C@@H](Cc1c[nH]c2ccccc12)C(=O)N[C@@H](CCCCN)C(=O)N[C@@H](CCCN=C(N)N)C(=O)N[C@@H](CCCN=C(N)N)C(N)=O` [RLWLAWKRR] gave an MIC [5] of 4 µM (≈ 5.13 µg/mL), an MIC [7] of 2 µM (≈ 2.57 µg/mL) and an MIC [8] of 4 µM (≈ 5.13 µg/mL). The MIC [9] was 8 µM (≈ 10.3 µg/mL), the MIC [10] was 2 µM (≈ 2.57 µg/mL) and the MIC (Trichosporon beigelii) was 5 µM (≈ 6.42 µg/mL). For the same molecule, the MIC [11] was 4 µM (≈ 5.13 µg/mL), the MIC (Candida albicans) was 2.5 µM (≈ 3.21 µg/mL) and the MIC [12] was 1 µM (≈ 1.28 µg/mL). For the same molecule, the MIC [13] was 8 µM (≈ 10.3 µg/mL), the MIC (Aspergillus flavus) was 5 µM (≈ 6.42 µg/mL) and the MIC [16] was 8 µM (≈ 10.3 µg/mL). It also gave an MIC [14] of 2 µM (≈ 2.57 µg/mL), an MIC [15] of 2 µM (≈ 2.57 µg/mL) and an MIC (Malassezia furfur) of 1.25 µM (≈ 1.6 µg/mL).

With `C[C@H](NC(=O)[C@H](CCCCN)NC(=O)[C@H](CCCCN)NC(=O)[C@H](CCCN=C(N)N)NC(=O)CNC(=O)[C@H](Cc1c[nH]c2ccccc12)NC(=O)[C@H](CCCN=C(N)N)NC(=O)[C@H](CCCN=C(N)N)NC(=O)[C@H](CCCCN)NC(=O)[C@H](Cc1c[nH]c2ccccc12)NC(=O)[C@H](CCCCN)NC(=O)[C@H](Cc1c[nH]c2ccccc12)NC(=O)[C@H](Cc1c[nH]c2ccccc12)NC(=O)[C@H](CCCCN)NC(=O)[C@@H]1CCCN1C(=O)[C@@H](N)Cc1c[nH]c2ccccc12)C(=O)N[C@@H](CCCCN)C(=O)N[C@@H](CCCCN)C(=O)N[C@@H](CCCN=C(N)N)C(=O)N[C@@H](CCCN=C(N)N)C(=O)NCC(N)=O` [WPKWWKWKRRWGRKKAKKRRG] the MIC [17] was 22 µM (≈ 64 µg/mL), the MIC [18] was 22 µM (≈ 64 µg/mL) and the MIC [19] was ≥ 88 µM. For the same molecule, the MIC [20] was 5.5 µM (≈ 16 µg/mL), the MIC (Acinetobacter sp. M9013) was 11 µM (≈ 32 µg/mL) and the MIC [21] was 5.5 µM (≈ 16 µg/mL). For the same molecule, the MIC [22] was 1.37 µM (≈ 4 µg/mL), the MIC [23] was 11 µM and 10.9 µM and the MIC [24] was 11 µM (≈ 32 µg/mL). The MIC (Escherichia coli M9884) was ≥ 44 µM, the MIC [25] was 11 µM (≈ 32 µg/mL) and the MIC (Acinetobacter sp. M13523) was 22 µM (≈ 64 µg/mL). For the same molecule, the MIC [26] was 11 µM (≈ 32 µg/mL), the MIC [27] was ≥ 352 µM and the MIC (Acinetobacter sp. M9665) was ≥ 44 µM. The MIC (Staphylococcus cohnii) was 5.5 µM (≈ 16 µg/mL), the MIC (Staphylococcus warneri) was 2.75 µM (≈ 8 µg/mL) and the MIC [28] was 44 µM and 43.9 µM. For the same molecule, the MIC [29] was ≥ 44 µM, the MIC [30] was 11 µM (≈ 32 µg/mL) and the MIC (Acinetobacter sp. M5949) was ≥ 88 µM. For the same molecule, the MIC [31] was 22 µM (≈ 64 µg/mL), the MIC [32] was 5.5 µM (≈ 16 µg/mL) and the MIC [33] was ≥ 88 µM. The MIC [34] was 2.75 µM (≈ 8 µg/mL), the MIC [35] was 22 µM (≈ 64 µg/mL) and the MIC [36] was 5.5 µM (≈ 16 µg/mL). The MIC [37] was 22 µM (≈ 64 µg/mL), the MIC [38] was ≥ 352 µM and the MIC [39] was 2.75 µM (≈ 8 µg/mL). The MIC [40] was 5.5 µM (≈ 16 µg/mL), the MIC [41] was ≥ 44 µM and the MIC [42] was 5.5 µM (≈ 16 µg/mL).
